From PubChem BioAssay AID2060893 (Molecular Pharmacology Branch, DTP, NCI, 2025)

Test system: K86415-001-R-J1-PDC complex spheroids, viability
Test: Anticancer human tumor K86415-001-R-J1-PDC patient-derived lung adenocarcinoma cell line growth inhibition [RAS]
Conditions: for IC50: curve of first compound; for viability, T/C: stronger effect = lower value
How it was run: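 Agents were tested in combination matrices in half-log decrements from a top concentration at or near clinical Cmax (10 microM if undetermined). Targets were multi-cell spheroids of tumour lines plus HUVEC and MSC stromal cells.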

[1] = second compound 0.000949 µM, first compound 0.0316 µM
[2] = second compound 0.000949 µM, first compound 0.1 µM
[3] = second compound 0.000949 µM, first compound 0.316 µM
[4] = second compound 0.000949 µM, first compound 1 µM
[5] = second compound 0.003 µM, first compound 0.0316 µM
[6] = second compound 0.003 µM, first compound 0.1 µM
[7] = second compound 0.003 µM, first compound 0.316 µM
[8] = second compound 0.003 µM, first compound 1 µM
[9] = second compound 0.00949 µM, first compound 0.0316 µM
[10] = second compound 0.00949 µM, first compound 0.1 µM
[11] = second compound 0.00949 µM, first compound 0.316 µM
[12] = second compound 0.00949 µM, first compound 1 µM
[13] = second compound 0.03 µM, first compound 0.0316 µM
[14] = second compound 0.03 µM, first compound 0.1 µM
[15] = second compound 0.03 µM, first compound 0.316 µM
[16] = second compound 0.03 µM, first compound 1 µM
[17] = second compound 0.0949 µM, first compound 0.0316 µM
[18] = second compound 0.0949 µM, first compound 0.1 µM
[19] = second compound 0.0949 µM, first compound 0.316 µM
[20] = second compound 0.0949 µM, first compound 1 µM
[21] = second compound 0.3 µM, first compound 0.0316 µM
[22] = second compound 0.3 µM, first compound 0.1 µM
[23] = second compound 0.3 µM, first compound 0.316 µM
[24] = second compound 0.3 µM, first compound 1 µM
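Note: spheroids exposed to agents for seven days before readout.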

In the case of `Nc1ccn(C2OC(CO)C(O)C2(F)F)c(=O)n1` (stereo unspecified) + CCn1c(-c2cccnc2C(C)OC)c2c3cc(ccc31)N1CCOC(CC(NC(=O)C(C(C)C)N(C)C(=O)C3(F)CCN(C(=O)C#CC(C)(C)N(C)C)CC3)C(=O)N3CCCC(N3)C(=O)OCC(C)(C)C2)C1, the IC50 (second compound 0.000949 µM) is reported as < 3.16 nM, the IC50 (second compound 0.003 µM) is reported as < 3.16 nM and the IC50 (second compound 0.00949 µM) is reported as < 3.16 nM. The IC50 (second compound 0.03 µM) was < 3.16 nM, the IC50 (second compound 0.0949 µM) was < 3.16 nM and the IC50 (second compound 0.3 µM) was < 3.16 nM. The viability, T/C (second compound 0.000949 µM, first compound 0.00316 µM) was 37.9%, the viability, T/C (second compound 0.000949 µM, first compound 0.01 µM) was 34.3% and the viability, T/C [1] was 19.9%. The viability, T/C [2] was 27%, the viability, T/C [3] was 19.2% and the viability, T/C [4] was 9.69%. For the same compound, the viability, T/C (second compound 0.003 µM, first compound 0.00316 µM) was 15.3%, the viability, T/C (second compound 0.003 µM, first compound 0.01 µM) was 11.6% and the viability, T/C [5] was 10.8%. The viability, T/C [6] was 12.3%, the viability, T/C [7] was 12% and the viability, T/C [8] was 9.95%. The viability, T/C (second compound 0.00949 µM, first compound 0.00316 µM) was 9.77%, the viability, T/C (second compound 0.00949 µM, first compound 0.01 µM) was 10% and the viability, T/C [9] was 16.4%. The viability, T/C [10] was 12.3%, the viability, T/C [11] was 11.2% and the viability, T/C [12] was 7.94%. For the same compound, the viability, T/C (second compound 0.03 µM, first compound 0.00316 µM) was 13.3%, the viability, T/C (second compound 0.03 µM, first compound 0.01 µM) was 11% and the viability, T/C [13] was 11.1%. The viability, T/C [14] was 9.53%, the viability, T/C [15] was 9.66% and the viability, T/C [16] was 12.4%. It also gave a viability, T/C (second compound 0.0949 µM, first compound 0.00316 µM) of 11.5%, a viability, T/C (second compound 0.0949 µM, first compound 0.01 µM) of 10.9% and a viability, T/C [17] of 12.8%. The viability, T/C [18] was 11.3%, the viability, T/C [19] was 7.92% and the viability, T/C [20] was 10.5%. The viability, T/C (second compound 0.3 µM, first compound 0.00316 µM) was 15.4%, the viability, T/C (second compound 0.3 µM, first compound 0.01 µM) was 12.6% and the viability, T/C [21] was 11.2%. It also gave a viability, T/C [22] of 9.08%, a viability, T/C [23] of 8.09% and a viability, T/C [24] of 10.1%.
`CC(C)NCC(C(=O)N1CCN(c2ncnc3c2C(C)CC3O)CC1)c1ccc(Cl)cc1` (stereo unspecified) was tested, and the viability, T/C (compound 0.0316 µM) was 109% [middle of 4 runs], the viability, T/C (compound 0.316 µM) was 97.9% [middle of 4 runs] and the viability, T/C (compound 1 µM) was 92.2% [middle of 4 runs]. For the same compound, the viability, T/C (compound 3.16 µM) was 65% [middle of 4 runs] and the viability, T/C (compound 10 µM) was 49.1% [middle of 4 runs].
In the case of `C[C@@H](NC(=O)c1ncnc(N)c1Cl)c1ncc(C(=O)Nc2cc(C(F)(F)F)c(Cl)cn2)s1` + CCn1c(-c2cc(N3CCN(C)CC3)cnc2C(C)OC)c2c3cc(ccc31)-c1csc(n1)CC(NC(=O)C1CC1C)C(=O)N1CCCC(N1)C(=O)OCC(C)(C)C2, the IC50 (second compound 0.000949 µM) is reported as 4280 nM, the IC50 (second compound 0.003 µM) is reported as < 31.6 nM and the IC50 (second compound 0.00949 µM) is reported as < 31.6 nM. The IC50 (second compound 0.03 µM) was < 31.6 nM, the IC50 (second compound 0.0949 µM) was < 31.6 nM and the IC50 (second compound 0.3 µM) was < 31.6 nM. For the same compound, the viability, T/C [1] was 58.2%, the viability, T/C [2] was 62.2% and the viability, T/C [3] was 53.7%. The viability, T/C [4] was 62.2%, the viability, T/C (second compound 0.000949 µM, first compound 3.16 µM) was 57.1% and the viability, T/C (second compound 0.000949 µM, first compound 10 µM) was 29.1%. It also gave a viability, T/C [5] of 34.8%, a viability, T/C [6] of 27.6% and a viability, T/C [7] of 32.1%. For the same compound, the viability, T/C [8] was 38.1%, the viability, T/C (second compound 0.003 µM, first compound 3.16 µM) was 33.4% and the viability, T/C (second compound 0.003 µM, first compound 10 µM) was 21.7%. The viability, T/C [9] was 12.9%, the viability, T/C [10] was 11.8% and the viability, T/C [11] was 11.9%. For the same compound, the viability, T/C [12] was 16.6%, the viability, T/C (second compound 0.00949 µM, first compound 3.16 µM) was 15.4% and the viability, T/C (second compound 0.00949 µM, first compound 10 µM) was 11.6%. It also gave a viability, T/C [13] of 6.75%, a viability, T/C [14] of 8.74% and a viability, T/C [15] of 8.31%. The viability, T/C [16] was 8.07%, the viability, T/C (second compound 0.03 µM, first compound 3.16 µM) was 8.51% and the viability, T/C (second compound 0.03 µM, first compound 10 µM) was 7.57%. It also gave a viability, T/C [17] of 5.52%, a viability, T/C [18] of 4.87% and a viability, T/C [19] of 4.23%. For the same compound, the viability, T/C [20] was 4.04%, the viability, T/C (second compound 0.0949 µM, first compound 3.16 µM) was 4.24% and the viability, T/C (second compound 0.0949 µM, first compound 10 µM) was 4.39%. The viability, T/C [21] was 3.5%, the viability, T/C [22] was 3.03% and the viability, T/C [23] was 4.17%. It also gave a viability, T/C [24] of 3.4%, a viability, T/C (second compound 0.3 µM, first compound 3.16 µM) of 4.53% and a viability, T/C (second compound 0.3 µM, first compound 10 µM) of 4.26%.
`CC1(C)CCC(Nc2ncc(C(F)(F)F)c(-c3c[nH]c4c(P(C)(C)=O)c(C#N)ccc34)n2)CN1` (stereo unspecified) + C=CC(=O)N1CCN(c2nc(OCC3CCCN3C)nc3c(F)c(-c4nc(N)cc(C)c4C(F)(F)F)c(Cl)cc23)C(C)C1 was tested, and the IC50 (second compound 0.00316 µM) was < 0.949 nM, the IC50 (second compound 0.01 µM) was < 0.949 nM and the IC50 (second compound 0.0316 µM) was < 0.949 nM. The IC50 (second compound 0.1 µM) was < 0.949 nM, the IC50 (second compound 0.316 µM) was < 0.949 nM and the IC50 (second compound 1 µM) was < 0.949 nM. The viability, T/C (second compound 0.00316 µM, first compound 0.000949 µM) was 18.3%, the viability, T/C (second compound 0.00316 µM, first compound 0.003 µM) was 22.2% and the viability, T/C (second compound 0.00316 µM, first compound 0.00949 µM) was 18.7%. For the same compound, the viability, T/C (second compound 0.00316 µM, first compound 0.03 µM) was 20.3%, the viability, T/C (second compound 0.00316 µM, first compound 0.0949 µM) was 22.7% and the viability, T/C (second compound 0.00316 µM, first compound 0.3 µM) was 22.8%. The viability, T/C (second compound 0.01 µM, first compound 0.000949 µM) was 15.2%, the viability, T/C (second compound 0.01 µM, first compound 0.003 µM) was 12.7% and the viability, T/C (second compound 0.01 µM, first compound 0.00949 µM) was 16.9%. For the same compound, the viability, T/C (second compound 0.01 µM, first compound 0.03 µM) was 13.3%, the viability, T/C (second compound 0.01 µM, first compound 0.0949 µM) was 15.5% and the viability, T/C (second compound 0.01 µM, first compound 0.3 µM) was 20.2%. For the same compound, the viability, T/C (second compound 0.0316 µM, first compound 0.000949 µM) was 12.8%, the viability, T/C (second compound 0.0316 µM, first compound 0.003 µM) was 14% and the viability, T/C (second compound 0.0316 µM, first compound 0.00949 µM) was 12.7%. For the same compound, the viability, T/C (second compound 0.0316 µM, first compound 0.03 µM) was 14.5%, the viability, T/C (second compound 0.0316 µM, first compound 0.0949 µM) was 15.6% and the viability, T/C (second compound 0.0316 µM, first compound 0.3 µM) was 16.5%. The viability, T/C (second compound 0.1 µM, first compound 0.000949 µM) was 11.2%, the viability, T/C (second compound 0.1 µM, first compound 0.003 µM) was 12.5% and the viability, T/C (second compound 0.1 µM, first compound 0.00949 µM) was 12.7%. It also gave a viability, T/C (second compound 0.1 µM, first compound 0.03 µM) of 13.1%, a viability, T/C (second compound 0.1 µM, first compound 0.0949 µM) of 13.9% and a viability, T/C (second compound 0.1 µM, first compound 0.3 µM) of 14.9%. For the same compound, the viability, T/C (second compound 0.316 µM, first compound 0.000949 µM) was 9.63%, the viability, T/C (second compound 0.316 µM, first compound 0.003 µM) was 13.1% and the viability, T/C (second compound 0.316 µM, first compound 0.00949 µM) was 12.1%. For the same compound, the viability, T/C (second compound 0.316 µM, first compound 0.03 µM) was 12.8%, the viability, T/C (second compound 0.316 µM, first compound 0.0949 µM) was 13.8% and the viability, T/C (second compound 0.316 µM, first compound 0.3 µM) was 13.4%. For the same compound, the viability, T/C (second compound 1 µM, first compound 0.000949 µM) was 10.9%, the viability, T/C (second compound 1 µM, first compound 0.003 µM) was 11.1% and the viability, T/C (second compound 1 µM, first compound 0.00949 µM) was 13.6%. It also gave a viability, T/C (second compound 1 µM, first compound 0.03 µM) of 13.8%, a viability, T/C (second compound 1 µM, first compound 0.0949 µM) of 15.9% and a viability, T/C (second compound 1 µM, first compound 0.3 µM) of 14.9%.
